Bridge positions count the residues as written; N and C are the ends. Peptide text beside a SMILES is read from it.
Tests used:
[1] = In vitro metabolic stability in rat plasma; assay type: in vitro ADME; conditions: 1 μM, 37° C., up to 120 min
Experimental: The linear and macrocyclic compounds 1-14 and 23-26 (SEQ ID NOs: 1-14 and 23-26) were incubated in concentration 1 μM with rat plasma (Sprague-Dawley, male; 400 μl) for different time points (0, 20, 40, 60 or 120 min) at 37° C. The incubation was terminated by acetonitrile. The collected samples were centrifuged for 20 min at 2272×g and analyzed. io Stock solutions were prepared using 50% DMSO, and the compounds were spiked 1/100 to incubation to have final DMSO content of 0.5%. The samples were analyzed by UHPLC/PDA with high resolution mass spectrometry (QE-Orbitrap-MS on DDI mode) to monitor disappearance of the compound. Enalapril 1 μM was used as a disappearance rate control. For analysis of compounds 9, 10, 13 and 14 stock solutions were prepared with PBS, and samples were analyzed by UHPLC-ToF mass spectrometry. The analytical method was optimized by using the parent compounds for optimum chromatographic properties (peak shape and retention) and mass spectrometric ionization. The ion chromatograms were extracted from the total ion chromatograms using calculated monoisotopic accurate masses with 5 mDa window. Disappearance was based on LC/MS peak areas, marking 0 min as 100%.
The first-order rate constants k (min-1) of the metabolism were obtained from the slope of time versus logarithm (% of remaining compound) plot using Excel software. The in vitro half-life (t1/2) of study compound is defined as: t1/2=In2/k. Calculated half-life is based on compound disappearance from rat plasma.

[2] = In vitro metabolic stability in human plasma; assay type: in vitro ADME; conditions: 1 μM, 37° C., up to 120 min
Experimental: s Metabolic stability studied using human plasma over the time period of 120 min, with initial test concentration of 1 μM. Samples were analyzed using LC/QE-orbitrap-MS. Calculated half-life is based on compound disappearance in human plasma.
The linear or macrocyclic compounds 1-8, 11-14 and 23-24 (SEQ ID NOs: 1-8, 11-14 and 23-26) were incubated in concentration 1 μM with human plasma (mixed gender, 400 μl) for different time points (0, 20, 40, 60 or 120 min) at 37° C. The incubation was terminated by acetonitrile. The collected samples were centrifuged for 20 min at 2272×g and analyzed. The samples were analyzed by UHPLC/PDA with high resolution mass spectrometry (QE-Orbitrap-MS on DDI mode) to monitor disappearance of the compound. Propanthelin […] bromide 1 μM was used as a disappearance rate control. The analytical method was optimized by using the parent compounds for optimum chromatographic properties (peak shape and retention) and mass spectrometric ionization. The Ion chromatograms were extracted from the total ion chromatograms using calculated monoisotopic accurate masses with 5 mDa window. Disappearance was based on LC/MS peak areas, marking 0 min as 100%. The first-order rate constants k (min-1) of the metabolism were obtained from the slope of time versus logarithm (% of remaining compound) plot using Excel software.

[3] = test system: dopaminergic TH-positive neurons injured with MPP+; test: Dependence of neuroprotective activity on UPR pathway signaling (MPP+ injured mesencephalic neurons with PERK or IRE1alpha inhibitor); assay type: cell-based, rat; conditions: for neuroprotective effect in the presence of PERK inhibitor GSK2606414: GSK2606414 added 1 h before test compound; for neuroprotective effect in the presence of IRE1alpha inhibitor KIRA6: KIRA6 added 1 h before test compound
Experimental: CDNF and MANF protect cells from ER stress-induced cell dysfunction or cell death, such as apoptosis by modulating cellular responses to ER stress. […] Binding of compounds to GRP78-NBD was assessed in a cell-free binding assay using purified recombinant GRP78-NBD and synthesized peptides. As GRP78 also serves as a critical ligand of the three receptors of the unfolded protein response (UPR) pathway, […], PERK and ATF6, the dependency of the compounds' neuroprotective effects on UPR signaling was also tested.
The neuronal cell culture, MPP+ intoxication, immunostaining and analysis of neuroprotective effects of compounds were performed as in Example 1. PERK inhibitor GSK2606414 (2 µM , Sigma) or IRE1alpha inhibitor KIRA6 (2 µM , Sigma) were added to the culture 1 h before addition of the test compounds.

[4] = biological target: GRP78-NBD; test: Binding to GRP78-NBD Kd (μM)
Text: Table printed on a drawing sheet, FIG. 5B
Head of the field: Binding to GRP78-NBD Kd (μM)
GRP78-NBD is shown in a translucent surface model along with its cartoon trace. The Cys-Cys bond in compound 12 (SEQ ID NO: 12) is shown in sticks.
The binding affinities are obtained by a microscale thermophoresis-based cell-free assay.
GSK2606414 was used to inhibit PERK signaling and KIRA6 to inhibit IRE1alpha signaling. * p<0.05, ** p<0.01, *** p<0.001, **** p<0.0001 one-way ANOVA is test with post-hoc Fisher's LSD test for pairwise comparison vs MPP+ negative control. # p<0.05, ## p<0.01, ### p<0.001, #### p<0.0001 one-way ANOVA test with post-hoc Fisher's LSD test for pairwise comparison between effect of compound alone and its combination with UPR signal inhibitor.
Where the first naming reader finds the target: head: Binding to GRP78-NBD Kd (μM)

[5] = Brain microdialysis (striatal interstitial fluid) after intravenous bolus; assay type: in vivo, male Sprague-Dawley rats; conditions: single 10 mg/kg intravenous bolus, microdialysis 4 hours
Experimental: Microdialysis probes were inserted to the ventral striatum of rats through implanted guide […] cannulas and perfused by aCSF. Compound 14 was administered as a single 10 mg/kg intravenous bolus injection and microdialysis samples were collected in 20-min interval for 4 hours. The brain interstitial fluid (ISF) concentrations of the compound were determined by LC-MS/MS and normalized to the recovery-% of the microdialysis membrane (determined by in vitro experiments).
Brain microdialysis study was carried out on the separate group of awake animals treated intravenously with compound 14. One week before the microdialysis experiment Sprague- Dawley rats were implanted with a guide cannula in the striatum at the following coordinates: AP +0.6 mm; L −3.0 mm; V −2.8 mm, providing the final V −6.8 mm for the tip of the microdialysis probe. On the day of the experiment a microdialysis probe (Eicom A-I: 0.22 mm O.D., 4 mm membrane length with cut-off 50 kDa) were inserted into the guide cannula and perfused at a constant flow-rate of 0.1 μL/min with artificial cerebrospinal fluid (aCSF) solution. […] The brain intrastitial fluid concentrations of the compound were analysed by UHPLC-MS/MS. […] Determined recovery percentage (29.3%) was used for correction of the data obtained in microdialysis study.

SMILES | stability in rat plasma as compared to linear counterpart [1] | stability in human plasma as compared to linear counterpart [2] | neuroprotective effect in the presence of PERK inhibitor GSK2606414 [3] | neuroprotective effect in the presence of IRE1alpha inhibitor KIRA6 [3] | Kd [4] [nM] | penetration to the brain parenchyma (brain ISF, striatum) [5]
CC[C@H](C)[C@@H]1NC(=O)[C@H](CCC(N)=O)NC(=O)[C@H](CCCCN)NC(=O)[C@H](CC(C)C)NC(=O)[C@H](CCC(=O)O)NC(=O)[C@H](C)NC(=O)[C@H](C(C)C)NC(=O)[C@H](CCCNC(=N)N)NC(=O)[C@H](CCSC)NC(=O)[C@H](CCCCN)NC(=O)[C@H](CCCNC(=N)N)NC(=O)[C@H](CC(C)C)NC(=O)[C@H](CC(=O)O)NC(=O)[C@H](C(C)C)NC(=O)[C@H](CCC(=O)O)NC(=O)[C@H](C)NC(=O)[C@@H]2CSSC[C@H](NC(=O)[C@H](CCC(=O)O)NC(=O)[C@H](CCC(=O)O)NC(=O)CNC(=O)[C@H](Cc3c[nH]c4ccccc34)NC(=O)[C@H](CO)NC(=O)[C@H](Cc3c[nH]cn3)NC(=O)[C@H](CC(C)C)NC1=O)C(=O)N[C@@H](CCCNC(=N)N)C(=O)N[C@@H](C)C(=O)N2 [Compound 2] (cyclo(ACAEVDLRKMRVAELKQILHSWGEECR); disulfide 2-26) | improved stability | improved stability | – | – | – | –
CC[C@H](C)[C@@H]1NC(=O)[C@H](CCCCN)NC(=O)[C@H](CCCCN)NC(=O)[C@H](CC(C)C)NC(=O)[C@H](CCC(=O)O)NC(=O)[C@H](CCCCN)NC(=O)[C@H](C(C)C)NC(=O)[C@H](CCCNC(=N)N)NC(=O)[C@H](CC(C)C)NC(=O)[C@H](CCCCN)NC(=O)[C@H](CCC(=O)O)NC(=O)[C@H](C)NC(=O)[C@@H]2CSSC[C@H](NC(=O)[C@H]([C@@H](C)O)NC(=O)[C@H](CCC(=O)O)NC(=O)CNC(=O)[C@H](Cc3c[nH]c4ccccc34)NC(=O)[C@H](CC(=O)O)NC(=O)[C@H](CC(=O)O)NC(=O)[C@H](CC(C)C)NC1=O)C(=O)N[C@@H](CCCCN)C(=O)NCC(=O)N2 [Compound 8] (cyclo(AEKLRVKELKKILDDWGETCKGC); disulfide 20-23) | improved stability | – | – | – | – | –
CC[C@H](C)[C@@H]1NC(=O)[C@H](CO)NC(=O)[C@H](CCCCN)NC(=O)[C@H](CCC(=O)O)NC(=O)[C@H](C)NC(=O)[C@@H]2CSSC[C@H](NC(=O)[C@H]([C@@H](C)O)NC(=O)[C@H](CCC(=O)O)NC(=O)CNC(=O)[C@H](Cc3c[nH]c4ccccc34)NC(=O)[C@H](CC(=O)O)NC(=O)[C@H](CC(=O)O)NC(=O)[C@H](CC(C)C)NC1=O)C(=O)N[C@@H](CCCCN)C(=O)NCC(=O)N2 [Compound 10, KSILDDWGETCKGCAE] (cyclo(AEKSILDDWGETCKGC); disulfide 13-16) | improved stability | – | abolished | abolished | – | –
C[C@@H]1NC(=O)[C@@H]2CSSC[C@H](NC(=O)[C@H](CCC(=O)O)NC(=O)[C@H](CCC(=O)O)NC(=O)CNC(=O)[C@H](Cc3c[nH]c4ccccc34)NC(=O)[C@H]([C@@H](C)O)NC(=O)[C@H](CCCCN)NC(=O)[C@H](CCC(=O)O)NC1=O)C(=O)N[C@@H](CCCNC(=N)N)C(=O)N[C@@H](C)C(=O)N2 [Compound 12, WGEECRACAEKT] (cyclo(ACAEKTWGEECR); disulfide 2-11) | – | – | – | – | 1650 | –
C[C@@H]1NC(=O)[C@@H]2CSSC[C@H](NC(=O)[C@H]([C@@H](C)O)NC(=O)[C@H](CCC(=O)O)NC(=O)CNC(=O)[C@H](Cc3c[nH]c4ccccc34)NC(=O)[C@H](CO)NC(=O)[C@H](CCCCN)NC(=O)[C@H](CCC(=O)O)NC1=O)C(=O)N[C@@H](CCCCN)C(=O)NCC(=O)N2 [Compound 14, WGETCKGCAEKS] (cyclo(AEKSWGETCKGC); disulfide 9-12) | improved stability | – | abolished | abolished | 1500 | penetration
C[C@@H]1NC(=O)[C@@H]2CSSC[C@H](NC(=O)[C@H]([C@@H](C)O)NC(=O)[C@H](CCC(=O)O)NC(=O)CNC(=O)[C@H](Cc3c[nH]c4ccccc34)NC(=O)[C@H](CO)NC(=O)[C@H](CCCCN)NC(=O)[C@H](CCC(=O)O)NC1=O)C(=O)N[C@@H](CCCCN)C(=O)NCC(=O)NCC(=O)N2 [Compound 26, WGETCKGGCAEKS] (cyclo(AEKSWGETCKGGC); disulfide 9-13) | improved stability | improved stability | – | – | – | –
